Laboratory results: PubChem BioAssay (NCI)
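Cultured in 96-well plates, cells were exposed to test compound for 48 hours across five concentrations. GI50 marks 50% less growth. TGI denotes the concentration required for complete inhibition of growth.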

Tests used:
Assay in all cases: growth of human tumour cells (NCI), 48 h
SF-539 CNS = test system: SF-539 CNS
786-0 renal = test system: 786-0 renal
MOLT-4 leukemia = test system: MOLT-4 leukemia
SF-295 CNS = test system: SF-295 CNS
ACHN renal = test system: ACHN renal
MALME-3M melanoma = test system: MALME-3M melanoma
K-562 leukemia = test system: K-562 leukemia
TK-10 renal = test system: TK-10 renal
NCI-H522 lung = test system: NCI-H522 lung

SMILES | TGI (SF-539 CNS) [µM] | TGI (786-0 renal) [µM] | TGI (MOLT-4 leukemia) [µM] | TGI (SF-295 CNS) [µM] | TGI (ACHN renal) [µM] | TGI (MALME-3M melanoma) [µM] | TGI (K-562 leukemia) [µM] | TGI (TK-10 renal) [µM] | TGI (NCI-H522 lung) [µM] | GI50 (NCI-H522 lung) [µM] | GI50 (SF-539 CNS) [µM] | GI50 (MOLT-4 leukemia) [µM] | GI50 (SF-295 CNS) [µM] | GI50 (ACHN renal) [µM] | GI50 (MALME-3M melanoma) [µM] | GI50 (K-562 leukemia) [µM] | GI50 (TK-10 renal) [µM]
Cn1c(=S)[nH]c(N)c(Cc2ccccc2)c1=O | > 100 | > 100 | > 100 | > 100 | > 100 | > 100 | > 100 | > 100 |  |  |  |  |  |  |  |  | 
CCOC(=O)c1cc([N+](=O)[O-])c(Sc2ncnc3nc[nH]c23)c([N+](=O)[O-])c1 | 13.4 | 7.98 |  | > 35.6 | 19.9 | 18.1 |  | 5.81 | 2.34 |  |  |  |  |  |  |  | 
COc1ccc(CNc2nc3cc(C(F)(F)F)ccc3nc2C(=O)O)cc1 | 49.2 | 63.2 | 52.6 | > 100 | > 100 |  | 61.3 |  |  |  |  |  |  |  |  |  | 
C[C@@H](c1ccccc1)N1CO[C@@]2(C#Cc3ccc4c(c3)OCO4)CCC[C@@H]12 |  | 36 | 48.2 | 28.1 | > 100 |  | 96.2 | 28.8 |  |  |  |  |  |  |  |  | 
Nc1ncnc2c1ccn2-c1cccc(NC(=O)c2ccc(N3CCOCC3)c(C(F)(F)F)c2)c1 | 15.4 |  | 20.1 | 7.31 | 10.5 | 13.2 | 16 | 6.04 | 5.2 | 1.74 | 2.39 | 3.05 | 2.44 | 2.88 | 3.08 | 2.41 | 1.92
CCOC(=O)CC1Nc2ccccc2C12CCc1c([nH]c3ccccc13)C2C(=O)OCC (centres undefined) | > 100 | > 100 | > 100 | 22.5 | > 100 | 51.6 | > 100 | > 100 | > 100 |  |  |  |  |  |  |  | 
O=C(Nc1ccc(F)cc1)c1cc2c(cc1Cl)Sc1nccn1S2(=O)=O | > 100 | > 100 | > 100 | > 100 | > 100 | > 100 | > 100 |  | > 100 |  |  |  |  |  |  |  | 
Cc1cccc(-c2nc(-c3cnccn3)n(Cc3ccccc3)n2)c1 | > 100 | > 100 | > 100 | > 100 |  |  | > 100 |  | > 100 |  |  |  |  |  |  |  | 
Nc1ccc(C2SCC(=O)N2NS(=O)(=O)c2cccc(C(=O)O)c2)cc1 (centres undefined) | > 100 | > 100 | > 100 | > 100 | > 100 | 55.7 | > 100 | > 100 | > 100 |  |  |  |  |  |  |  | 
NS(=O)(=O)c1ccc(NC(=O)c2ccc3nc4ccccc4c(Nc4ccc(S(N)(=O)=O)cc4)c3c2)cc1 | > 100 | > 100 | > 100 | > 100 | > 100 | > 100 | > 100 | > 100 | > 100 |  |  |  |  |  |  |  | 
C#CCn1c(=O)ccn(/C(=C/C(=O)OCC)C(=O)OCC)c1=O | 3.99 | 32.5 | > 56.4 | > 60.5 | 3.21 | 5.19 | > 100 | 3.68 |  |  |  |  |  |  |  |  | 
N=c1oc2cc(O)ccc2cc1C(=O)Nc1cccc2ccccc12 |  | 17.3 | > 35.4 | 23.2 | 15.9 | 15.5 | > 42.7 | 7.68 | 7.47 |  |  |  |  |  |  |  | 
COC(=O)C1Cc2cc3c(cc2C1)CCC3 | > 100 | > 100 | > 100 | > 100 | > 100 | > 100 | > 100 | > 100 |  |  |  |  |  |  |  |  | 
C=CCOCn1cnc2c(=O)[nH]c(N)nc21 | > 100 | > 100 | > 100 | > 100 | > 100 | > 100 | > 100 | > 100 |  |  |  |  |  |  |  |  | 
COc1ccc2nc3cc(Cl)ccc3c(NCCCCCC(=O)NC(COc3ccc4ccc5cccnc5c4n3)COc3ccc4ccc5cccnc5c4n3)c2c1 | 30.6 | 28.8 | 12.7 | > 100 | 28.9 | > 100 | 26.3 | 32 | 81.1 |  |  |  |  |  |  |  | 
C=C(C)CCC(O)[C@](C)(O)[C@H]1[C@H](O)C[C@@]2(C)[C@@H]3CCc4c(cc(OC5OC(CO)C(O)C(O)C5O)c(O)c4C)C3(C)C(=O)C[C@]12C (some centres undefined) | > 100 | > 100 | > 100 | > 100 | > 100 | > 100 | > 100 | > 100 | > 100 |  |  |  |  |  |  |  | 
Cc1ccc(S(=O)(=O)Nn2c(S)c(C#N)c(-c3ccc(Cl)cc3)c(C#N)c2=O)cc1 | 39.6 | > 100 | > 100 | > 100 | > 100 | > 100 | > 100 | 76 | 37.4 |  |  |  |  |  |  |  | 
COc1cc(C(c2ccc3c(c2)OCO3)C2SCCCS2)cc(OC)c1OC (centres undefined) |  | 9.68 | 8.29 | 4.66 | > 100 | > 100 | 4.73 | > 100 | 5.87 |  |  |  |  |  |  |  | 
CC(C)C(/C=C/c1ccc(Cl)cc1)=N\NC(=O)N/N=C(/C=C/c1ccc(Cl)cc1)C(C)C | 31.2 | 33.5 | > 100 | 45.2 | 87.3 | > 100 | > 100 | 51.3 |  |  |  |  |  |  |  |  | 
O[C@@]12Cc3c([nH]c4ccccc34)[C@@H]3Oc4c(-c5ccccc5)ccc5c4[C@@]31CCN(CC1CC1)[C@@H]2C5 |  | 3.04 | 11 | 3.5 | 2.75 | 3.99 | 7.56 |  | 3.36 |  |  |  |  |  |  |  | 
S=C1NNC2(C(=S)N1)c1ccccc1-c1ccccc12 | > 10 | > 10 | > 10 |  |  | > 10 | > 10 | > 10 |  |  |  |  |  |  |  |  | 
c1ccc2c(c1)-c1ccccc1C2NC1=NCCO1 | 49.6 | 84.5 | > 100 | > 100 | > 100 | 27 | > 100 | 83.6 | 51.4 |  |  |  |  |  |  |  | 
O=C(OCC(OC(=O)c1ccccc1)C1CC(C2(O)CCCCC2)C(=O)O1)c1ccccc1 (centres undefined) | > 25 | > 25 | 19.1 | > 25 | > 25 | > 25 | > 25 | > 25 | > 25 |  |  |  |  |  |  |  | 
CCCCCCCCCCCCCCCC(=O)OC1C(O)C(O)C(O)C(O)C12CO2 (centres undefined) | 63.9 | 41.9 | 42.7 | > 100 | > 100 | > 100 | 67.8 | > 100 | > 100 |  |  |  |  |  |  |  | 
